Test results published in PubChem BioAssay (NCI).
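Results reflect a 48-hour exposure of cells in 96-well plates to compound at five concentrations. Here, GI50 denotes the concentration required for 50% inhibition of growth. At the TGI there is no net growth.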

Legend:
Assay in all cases: NCI-60 cell line screen, 48 h
NCI-H23 lung = system: NCI-H23 lung
CCRF-CEM leukemia = system: CCRF-CEM leukemia
HS 578T breast = system: HS 578T breast
SF-295 CNS = system: SF-295 CNS
IGROV1 ovarian = system: IGROV1 ovarian
786-0 renal = system: 786-0 renal
RPMI-8226 leukemia = system: RPMI-8226 leukemia
ACHN renal = system: ACHN renal
UACC-257 melanoma = system: UACC-257 melanoma
SK-MEL-5 melanoma = system: SK-MEL-5 melanoma
HCT-116 colon = system: HCT-116 colon
CAKI-1 renal = system: CAKI-1 renal
OVCAR-8 ovarian = system: OVCAR-8 ovarian
HT29 colon = system: HT29 colon
M14 melanoma = system: M14 melanoma
HCC-2998 colon = system: HCC-2998 colon
COLO 205 colon = system: COLO 205 colon
HOP-62 NSCLC = system: HOP-62 NSCLC
EKVX NSCLC = system: EKVX NSCLC
DU-145 prostate = system: DU-145 prostate
NCI-H460 lung = system: NCI-H460 lung
HCT-15 colon = system: HCT-15 colon
SN12C renal = system: SN12C renal
RXF 393 renal = system: RXF 393 renal
SK-OV-3 ovarian = system: SK-OV-3 ovarian
UO-31 renal = system: UO-31 renal
OVCAR-3 ovarian = system: OVCAR-3 ovarian
MDA-MB-435 = system: MDA-MB-435
SNB-75 CNS = system: SNB-75 CNS
SNB-19 CNS = system: SNB-19 CNS
PC-3 prostate = system: PC-3 prostate
K-562 leukemia = system: K-562 leukemia
MCF7 breast = system: MCF7 breast
OVCAR-5 ovarian = system: OVCAR-5 ovarian
SK-MEL-2 melanoma = system: SK-MEL-2 melanoma
NCI/ADR-RES ovarian = system: NCI/ADR-RES ovarian
T-47D breast = system: T-47D breast
BT-549 breast = system: BT-549 breast
SF-268 CNS = system: SF-268 CNS
SK-MEL-28 melanoma = system: SK-MEL-28 melanoma
NCI-H226 lung = system: NCI-H226 lung
SF-539 CNS = system: SF-539 CNS
KM12 colon = system: KM12 colon
UACC-62 melanoma = system: UACC-62 melanoma
HOP-92 NSCLC = system: HOP-92 NSCLC
OVCAR-4 ovarian = system: OVCAR-4 ovarian
MDA-MB-231 breast = system: MDA-MB-231 breast
U251 CNS = system: U251 CNS
SW-620 colon = system: SW-620 colon
A549 NSCLC = system: A549 NSCLC
MOLT-4 leukemia = system: MOLT-4 leukemia
NCI-H522 lung = system: NCI-H522 lung
LOX IMVI melanoma = system: LOX IMVI melanoma

Work on `O=C1CS/C(=N/S(=O)(=O)c2ccc(N3N=C4c5ccccc5CC4C3c3cccs3)cc2)N(c2ccccc2)C1` (stereo unspecified) yielded a GI50 (NCI-H23 lung) of 24.2 µM, a TGI (NCI-H23 lung) of 63.5 µM and a GI50 (CCRF-CEM leukemia) of 36.8 µM. It also gave a TGI (CCRF-CEM leukemia) of over 100 µM, a GI50 (HS 578T breast) of 20.5 µM and a TGI (HS 578T breast) of 83.7 µM. The GI50 (SF-295 CNS) was 32.7 µM, the TGI (SF-295 CNS) was over 100 µM and the GI50 (IGROV1 ovarian) was 19.5 µM. For the same compound, the TGI (IGROV1 ovarian) was over 100 µM, the GI50 (786-0 renal) was 22.1 µM and the TGI (786-0 renal) was over 100 µM. It also gave a GI50 (RPMI-8226 leukemia) of 31 µM, a TGI (RPMI-8226 leukemia) of over 100 µM and a GI50 (ACHN renal) of 22.1 µM. It also gave a TGI (ACHN renal) of 78.7 µM, a GI50 (UACC-257 melanoma) of 42.3 µM and a TGI (UACC-257 melanoma) of over 100 µM. It also gave a GI50 (SK-MEL-5 melanoma) of 38.2 µM, a TGI (SK-MEL-5 melanoma) of over 100 µM and a GI50 (HCT-116 colon) of 12.5 µM. It also gave a TGI (HCT-116 colon) of 27.4 µM, a GI50 (CAKI-1 renal) of 74.5 µM and a TGI (CAKI-1 renal) of over 100 µM. For the same compound, the GI50 (OVCAR-8 ovarian) was 25.4 µM, the TGI (OVCAR-8 ovarian) was over 100 µM and the GI50 (HT29 colon) was 61 µM. It also gave a TGI (HT29 colon) of over 100 µM, a GI50 (M14 melanoma) of 39.1 µM and a TGI (M14 melanoma) of over 100 µM. The GI50 (HCC-2998 colon) was 20.5 µM, the TGI (HCC-2998 colon) was 48.5 µM and the GI50 (COLO 205 colon) was 57.2 µM. It also gave a TGI (COLO 205 colon) of over 100 µM, a GI50 (HOP-62 NSCLC) of 17.4 µM and a TGI (HOP-62 NSCLC) of 49.2 µM. For the same compound, the GI50 (EKVX NSCLC) was 39.5 µM, the TGI (EKVX NSCLC) was over 100 µM and the GI50 (DU-145 prostate) was 30.7 µM. For the same compound, the TGI (DU-145 prostate) was over 100 µM, the GI50 (NCI-H460 lung) was over 100 µM and the TGI (NCI-H460 lung) was over 100 µM. It also gave a GI50 (HCT-15 colon) of 35.5 µM, a TGI (HCT-15 colon) of over 100 µM and a GI50 (SN12C renal) of 34.3 µM. It also gave a TGI (SN12C renal) of over 100 µM, a GI50 (RXF 393 renal) of 41 µM and a TGI (RXF 393 renal) of over 100 µM. The GI50 (SK-OV-3 ovarian) was over 100 µM, the TGI (SK-OV-3 ovarian) was over 100 µM and the GI50 (UO-31 renal) was 69.3 µM. For the same compound, the TGI (UO-31 renal) was over 100 µM, the GI50 (OVCAR-3 ovarian) was over 100 µM and the TGI (OVCAR-3 ovarian) was over 100 µM. It also gave a GI50 (MDA-MB-435) of 29.5 µM, a TGI (MDA-MB-435) of over 100 µM and a GI50 (SNB-75 CNS) of over 100 µM. It also gave a TGI (SNB-75 CNS) of over 100 µM, a GI50 (SNB-19 CNS) of 55.7 µM and a TGI (SNB-19 CNS) of over 100 µM. The GI50 (PC-3 prostate) was 45 µM, the TGI (PC-3 prostate) was over 100 µM and the GI50 (K-562 leukemia) was 10.3 µM. For the same compound, the TGI (K-562 leukemia) was 93.5 µM, the GI50 (MCF7 breast) was 88.8 µM and the TGI (MCF7 breast) was over 100 µM. For the same compound, the GI50 (OVCAR-5 ovarian) was 34.6 µM, the TGI (OVCAR-5 ovarian) was over 100 µM and the GI50 (SK-MEL-2 melanoma) was 60.2 µM. For the same compound, the TGI (SK-MEL-2 melanoma) was over 100 µM, the GI50 (NCI/ADR-RES ovarian) was over 100 µM and the TGI (NCI/ADR-RES ovarian) was over 100 µM. For the same compound, the GI50 (T-47D breast) was 69.2 µM, the TGI (T-47D breast) was over 100 µM and the GI50 (BT-549 breast) was 21.4 µM. The TGI (BT-549 breast) was over 100 µM, the GI50 (SF-268 CNS) was over 100 µM and the TGI (SF-268 CNS) was over 100 µM. For the same compound, the GI50 (SK-MEL-28 melanoma) was over 100 µM, the TGI (SK-MEL-28 melanoma) was over 100 µM and the GI50 (NCI-H226 lung) was 22.3 µM. For the same compound, the TGI (NCI-H226 lung) was 93.8 µM, the GI50 (SF-539 CNS) was 27.8 µM and the TGI (SF-539 CNS) was 99.2 µM. It also gave a GI50 (KM12 colon) of 28.4 µM, a TGI (KM12 colon) of 88.4 µM and a GI50 (UACC-62 melanoma) of 16.1 µM. For the same compound, the TGI (UACC-62 melanoma) was 38.9 µM, the GI50 (HOP-92 NSCLC) was 79.9 µM and the TGI (HOP-92 NSCLC) was over 100 µM. For the same compound, the GI50 (OVCAR-4 ovarian) was over 100 µM, the TGI (OVCAR-4 ovarian) was over 100 µM and the GI50 (MDA-MB-231 breast) was 21.4 µM. It also gave a TGI (MDA-MB-231 breast) of 84.8 µM, a GI50 (U251 CNS) of 28 µM and a TGI (U251 CNS) of over 100 µM. It also gave a GI50 (SW-620 colon) of 45.2 µM, a TGI (SW-620 colon) of over 100 µM and a GI50 (A549 NSCLC) of 47.2 µM. It also gave a TGI (A549 NSCLC) of over 100 µM, a GI50 (MOLT-4 leukemia) of 0.0146 µM and a TGI (MOLT-4 leukemia) of 34.8 µM. It also gave a GI50 (NCI-H522 lung) of 23.8 µM, a TGI (NCI-H522 lung) of over 100 µM and a GI50 (LOX IMVI melanoma) of 21.2 µM. The TGI (LOX IMVI melanoma) was 51 µM.
